Earlier results as cited in article PMC8459971, “Evaluation of the hepatotoxicity of the novel GPR40 (FFAR1) agonist CPL207280 in the rat and monkey” (PLoS ONE, 2021).
Like-named read-outs stand apart in the source and are kept apart here. Marks after values point to notes of the source that are not given here.

How the values were obtained:
[1] = cited from earlier work; for AUC24h (Mean) / Cmax (Mean): rat; for exposure in plasma (AUC): rats
[2] = cited from earlier work
[3] = 14-day toxicology study in rats

For `Cc1cc(OCCCS(C)(=O)=O)cc(C)c1-c1cccc(COc2ccc3c(c2)OC[C@H]3CC(=O)O)c1` [TAK-875, fasiglifam, reference compound], the “effect on ALT” value [1, 3] is listed as “significantly increased ALT at doses of 200 and 600 mg/kg after seven days”, the “effect on TBA and T-BIL” value [1, 3] is listed as “increased TBA and T-BIL levels at a dose of 600 mg/kg” and the “AUC24h (Mean)” value ([1]; Day 1, Dose 200 mg/kg/day) is listed as 1210000* ng x hr/mL. For the same molecule, the “Cmax (Mean)” value ([1]; Day 1, Dose 200 mg/kg/day) was 296000* ng/ml, the “AUC24h (Mean)” value ([1]; Day 1, Dose 600 mg/kg/day) was 2010000* ng x hr/mL and the “Cmax (Mean)” value ([1]; Day 1, Dose 600 mg/kg/day) was 465000* ng/ml. For the same molecule, the “AUC24h (Mean)” value ([1]; Day 14, Dose 200 mg/kg/day) was 3740000* ng x hr/mL, the “Cmax (Mean)” value ([1]; Day 14, Dose 200 mg/kg/day) was 271000* ng/ml and the “AUC24h (Mean)” value ([1]; Day 14, Dose 600 mg/kg/day) was 6610000* ng x hr/mL. For the same molecule, the “Cmax (Mean)” value ([1]; Day 14, Dose 600 mg/kg/day) was 383000* ng/ml, the “exposure in plasma (AUC)” value ([1]; 200 mg/kg, day 1) was 1210 µg·h/mL and the “exposure in plasma (AUC)” value ([1]; 200 mg/kg, day 14) was 3740 µg·h/mL. The “exposure in plasma (AUC)” value ([1]; 600 mg/kg, day 1) was 2010 µg·h/mL, the “exposure in plasma (AUC)” value ([1]; 600 mg/kg, day 14) was 6610 µg·h/mL and the “Accumulation in rat plasma after repeat dose” value ([1]; summary table) was “Yes”. For the same molecule, the “Propensity to elevate bile acids and bilirubin in plasma” value ([1]; summary table) was “Yes” and the “plasma protein binding (PPB)” value [2] was greater than 99.4%.
